ChEMBL document CHEMBL1201862, “PubChem BioAssay data set” (2004)
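The compound was tested at five concentrations on cells cultured in 96-well plates, with a 48-hour exposure period. Here, GI50 denotes the concentration required for 50% inhibition of growth.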 The source made the active and inactive calls. No stated cut-off is given here; in the data, active = GI50 up to about 1.1 µM and inactive = higher.

What was measured:
Experiment in all cases: growth of human tumour cells (NCI), 48 h
[1] = system: 786-0
[2] = system: A498
[3] = system: A549
[4] = system: ACHN
[5] = system: BT-549
[6] = system: CAKI-1
[7] = system: CCRF-CEM
[8] = system: COLO 205
[9] = system: DMS-114
[10] = system: DMS-273
[11] = system: DU-145
[12] = system: EKVX
[13] = system: HCC 2998
[14] = system: HCT-116
[15] = system: HCT-15
[16] = system: HL-60
[17] = system: HOP-18
[18] = system: HOP-62
[19] = system: HOP-92
[20] = system: HT-29
[21] = system: Hs-578T
[22] = system: IGROV-1
[23] = system: K562
[24] = system: KM-20L2
[25] = system: KM12
[26] = system: LOX IMVI
[27] = system: LXFL 529
[28] = system: M14
[29] = system: M19-MEL
[30] = system: MCF7
[31] = system: MDA-MB-231
[32] = system: MDA-MB-435
[33] = system: MDA-N
[34] = system: MOLT-4
[35] = system: Malme-3M
[36] = system: NCI-H226
[37] = system: NCI-H23
[38] = system: NCI-H460
[39] = system: NCI-H522
[40] = system: NCI/ADR-RES
[41] = system: OVCAR-3
[42] = system: OVCAR-4
[43] = system: OVCAR-5
[44] = system: OVCAR-8
[45] = system: PC-3
[46] = system: RPMI-8226
[47] = system: RXF 393
[48] = system: SF-295
[49] = system: SF-539
[50] = system: SK-MEL-28
[51] = system: SK-MEL-2
[52] = system: SK-MEL-5
[53] = system: SK-OV-3
[54] = system: SN12C
[55] = system: SNB-19
[56] = system: SNB-75
[57] = system: SR
[58] = system: SW-620
[59] = system: T47D
[60] = system: TK-10
[61] = system: U-251
[62] = system: UACC-62
[63] = system: UO-31
[64] = system: XF498

## O=C(Cc1ccccc1F)NC1=C(Cl)C(=O)c2ccccc2C1=O
[1]
  GI50: 3090 nM (inactive)
[2]
  GI50: 4690 nM (inactive)
[3]
  GI50: 2510 nM (inactive)
[4]
  GI50: 543 nM (active)
[5]
  GI50: 1360 nM (inactive)
[6]
  GI50: 2790 nM (inactive)
[7]
  GI50: 428 nM (active)
[8]
  GI50: 3230 nM (inactive)
[9]
  GI50: 210 nM (active)
[10]
  GI50: 1520 nM (inactive)
[11]
  GI50: 10100 nM (inactive)
[12]
  GI50: 3020 nM (inactive)
[13]
  GI50: 3480 nM (inactive)
[14]
  GI50: 459 nM (active)
[15]
  GI50: 540 nM
[16]
  GI50: 310 nM (active)
[17]
  GI50: 668 nM (active)
[18]
  GI50: 5480 nM (inactive)
[19]
  GI50: 887 nM (active)
[20]
  GI50: 5750 nM (inactive)
[21]
  GI50: 656 nM (active)
[22]
  GI50: 1460 nM (inactive)
[23]
  GI50: 611 nM (active)
[24]
  GI50: 8430 nM (inactive)
[25]
  GI50: 524 nM (active)
[26]
  GI50: 1750 nM (inactive)
[27]
  GI50: 405 nM (active)
[28]
  GI50: 802 nM (active)
[29]
  GI50: 461 nM (active)
[30]
  GI50: 3740 nM (inactive)
[31]
  GI50: 2690 nM (inactive)
[32]
  GI50: 2770 nM (inactive)
[33]
  GI50: 2780 nM (inactive)
[34]
  GI50: 1060 nM (active)
[35]
  GI50: 1350 nM (inactive)
[36]
  GI50: 1740 nM (inactive)
[37]
  GI50: 778 nM (active)
[38]
  GI50: 1380 nM (inactive)
[39]
  GI50: 290 nM (active)
[40]
  GI50: 1950 nM (inactive)
[41]
  GI50: 621 nM (active)
[42]
  GI50: 659 nM (active)
[43]
  GI50: 4080 nM (inactive)
[44]
  GI50: 2160 nM (inactive)
[45]
  GI50: 1250 nM (inactive)
[46]
  GI50: 436 nM (active)
[47]
  GI50: 249 nM (active)
[48]
  GI50: 2850 nM (inactive)
[49]
  GI50: 333 nM (active)
[50]
  GI50: 822 nM (active)
[51]
  GI50: 652 nM (active)
[52]
  GI50: 1060 nM (active)
[53]
  GI50: 3040 nM (inactive)
[54]
  GI50: 3180 nM (inactive)
[55]
  GI50: 2840 nM (inactive)
[56]
  GI50: 655 nM (active)
[57]
  GI50: 578 nM (active)
[58]
  GI50: 721 nM (active)
[59]
  GI50: 1870 nM (inactive)
[60]
  GI50: 2400 nM (inactive)
[61]
  GI50: 650 nM (active)
[62]
  GI50: 481 nM (active)
[63]
  GI50: 723 nM (active)
[64]
  GI50: 706 nM (active)
